In US10259818B2, “Bicyclic azaheterocyclobenzylamines as PI3K inhibitors” (Incyte Corporation, priority 2012, dated 2019):

Tested on: SUDHL-6 cell line (diffuse large B cell lymphoma)
Assay: SUDHL-6 cell proliferation assay (Example B3)
Format: cell-based
Conditions: SUDHL-6 cells, 3 days, Cell Titer-GLO
Method: Example B3: SUDHL-6 Cell Proliferation Assay
SUDHL-6 cell line (diffuse large B cell lymphoma) was purchased from ATCC (Manassas, Va.) and maintained in the culture medium recommended (RPMI and 10% FBS). To measure the anti-proliferation activity of the compounds through ATP quantitation, the SUDHL-6 cells was plated with the culture medium (5000 cells/well/per 200 μl) into 96-well polystyrene clear black tissue culture plate (Greiner-bio-one through VWR, NJ) in the presence or absence of a concentration range of test compounds. After 3 days, Cell Titer-GLO Luminescent (Promega, Madison, Wis.) cell culture agent was added to each well for 10 minutes at room temperature to stabilize the luminescent signal. This determines the number of viable cells in culture based on quantitation of the ATP present, which signals the presence of metabolically active cells. Luminescence was measured with the TopCount 384 (Packard Bioscience through Perkin Elmer, Boston, Mass.). […] IC50 data for the Examples is presented in Table 4 determined by the assay of Example B3.

CCNC(=O)N1CC(N2Cc3c(C#N)c(Cl)cc(C(C)n4nc(C)c5c(N)ncnc54)c3OC(C)C2)C1 (single isomer, unassigned) [Example 97, 3-[9-[1-(4-amino-3-methyl-1H-pyrazolo[3,4-d]pyrimidin-1-yl)ethyl]-7-chloro-6-cyano-2-methyl-2,3-dihydro-1,4-benzoxazepin-4(5H)-yl]-N-ethylazetidine-1-carboxamide]
IC50 (Homo sapiens, SU-DHL-6, 72 h): ≤ 500 nM

CCNC(=O)N1CC(N2Cc3c(C#N)c(Cl)cc(C(C)n4nc(C)c5c(N)ncnc54)c3OC(C)C2)C1 (single isomer, unassigned) [Example 98, 3-[9-[1-(4-amino-3-methyl-1H-pyrazolo[3,4-d]pyrimidin-1-yl)ethyl]-7-chloro-6-cyano-2-methyl-2,3-dihydro-1,4-benzoxazepin-4(5H)-yl]-N-ethylazetidine-1-carboxamide]
IC50: ≤ 500 nM

CCOC(=O)N1CC(N2Cc3c(C#N)c(Cl)cc(C(C)n4nc(C)c5c(N)ncnc54)c3OC(C)C2)C1 (single isomer, unassigned) [Example 99, ethyl 3-[9-[1-(4-amino-3-methyl-1H-pyrazolo[3,4-d]pyrimidin-1-yl)ethyl]-7-chloro-6-cyano-2-methyl-2,3-dihydro-1,4-benzoxazepin-4(5H)-yl]azetidine-1-carboxylate]
IC50 (Homo sapiens, SU-DHL-6, 72 h): ≤ 500 nM

CCOC(=O)N1CC(N2Cc3c(C#N)c(Cl)cc(C(C)n4nc(C)c5c(N)ncnc54)c3OC(C)C2)C1 (single isomer, unassigned) [Example 100, ethyl 3-[9-[1-(4-amino-3-methyl-1H-pyrazolo[3,4-d]pyrimidin-1-yl)ethyl]-7-chloro-6-cyano-2-methyl-2,3-dihydro-1,4-benzoxazepin-4(5H)-yl]azetidine-1-carboxylate]
IC50: ≤ 500 nM

Cc1nn(C(C)c2cc(Cl)c(C#N)c3c2OC(C)CN(C2CN(C(=O)NC(C)C)C2)C3)c2ncnc(N)c12 (single isomer, unassigned) [Example 101, 3-[9-[1-(4-amino-3-methyl-1H-pyrazolo[3,4-d]pyrimidin-1-yl)ethyl]-7-chloro-6-cyano-2-methyl-2,3-dihydro-1,4-benzoxazepin-4(5H)-yl]-N-isopropylazetidine-1-carboxamide]
IC50 (Homo sapiens, SU-DHL-6, 72 h): ≤ 500 nM

Cc1nn(C(C)c2cc(Cl)c(C#N)c3c2OC(C)CN(C2CN(C(=O)NC(C)C)C2)C3)c2ncnc(N)c12 (single isomer, unassigned) [Example 102, 3-[9-[1-(4-amino-3-methyl-1H-pyrazolo[3,4-d]pyrimidin-1-yl)ethyl]-7-chloro-6-cyano-2-methyl-2,3-dihydro-1,4-benzoxazepin-4(5H)-yl]-N-isopropylazetidine-1-carboxamide]
IC50: ≤ 500 nM

Cc1nn(C(C)c2cc(Cl)c(C#N)c3c2OC(C)CN(C2CN(CCO)C2)C3)c2ncnc(N)c12 (single isomer, unassigned) [Example 104, 9-[1-(4-amino-3-methyl-1H-pyrazolo[3,4-d]pyrimidin-1-yl)ethyl]-7-chloro-4-[1-(2-hydroxyethyl)azetidin-3-yl]-2-methyl-2,3,4,5-tetrahydro-1,4-benzoxazepine-6-carbonitrile]
IC50 (Homo sapiens, SU-DHL-6, 72 h): ≤ 500 nM

Cc1nn(C(C)c2cc(Cl)c(C#N)c3c2OC(C)CN(C2CN(S(=O)(=O)N(C)C)C2)C3)c2ncnc(N)c12 (single isomer, unassigned) [Example 105, 3-[9-[1-(4-amino-3-methyl-1H-pyrazolo[3,4-d]pyrimidin-1-yl)ethyl]-7-chloro-6-cyano-2-methyl-2,3-dihydro-1,4-benzoxazepin-4(5H)-yl]-N,N-dimethylazetidine-1-sulfonamide]
IC50 (Homo sapiens, SU-DHL-6, 72 h): ≤ 500 nM

Cc1nn(C(C)c2cc(Cl)c(C#N)c3c2OC(C)CN(C2CN(S(=O)(=O)N(C)C)C2)C3)c2ncnc(N)c12 (single isomer, unassigned) [Example 106, 3-[9-[1-(4-amino-3-methyl-1H-pyrazolo[3,4-d]pyrimidin-1-yl)ethyl]-7-chloro-6-cyano-2-methyl-2,3-dihydro-1,4-benzoxazepin-4(5H)-yl]-N,N-dimethylazetidine-1-sulfonamide]
IC50: ≤ 500 nM
